In patent US9296720B2, “Carboxamide-substituted heteroaryl-pyrazoles and the use thereof” (AiCuris GmbH & Co. KG, priority 2011, dated 2016):

Tests used:
Assay type in all cases: cell-based
[1] = system: HIV-1NL4-3 Wild Type; experiment: Luminescence reduction assay, MT4 cells infected with HIV-1NL4-3 luciferase reporter virus, wild type; conditions: Human immunodeficiency virus 1, MT4, MT4 cells, 2% FCS
In short: (§1)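 Compound dilution series in 1% DMSO, with 2% or 10% FCS, incubated 5 days at 37° C/5% CO2 with MT4 cells previously pellet-infected (2 h) by luciferase reporter NL4-3 virus, wild type or carrying RT resistance mutations. EC50 taken where luminescence from secreted luciferase falls to 50% of untreated infected control.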

[2] = system: HIV-1NL4-3 K103N-Y181C; experiment: Luminescence reduction assay, MT4 cells infected with HIV-1NL4-3 luciferase reporter virus, RT mutant K103N-Y181C; conditions: Human immunodeficiency virus 1, MT4, read-out: EC50 (μM) MT4 Cells HIV-1NL4-3 K103N-Y181C 2% FCS, MT4 cells, HIV-1NL4-3 K103N-Y181C, 2% FCS
In short: as §1

[3] = system: HIV-1LAI Wild Type; experiment: AlamarBlue viability assay, HIV-1LAI-infected MT4 cells; conditions: Human immunodeficiency virus 1, MT4, MT4 cells, 10% FCS
In short: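 MT4 cells infected with HIV-1LAI (MOI 0.01, supernatant infection) cultured 5 days at 37 °C with compounds in RPMI with 2% or 10% FCS, 1% DMSO final. AlamarBlue fluorescence after 3 h; EC50 as 50% protection relative to uninfected cells, CC50 from high-concentration cytotoxicity.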

| SMILES | EC50 [1] | EC50 [2] | EC50 [3] |
| --- | --- | --- | --- |
| O=C(c1cc(-c2cc(F)cc(OC(F)(F)F)c2)n(-c2ccnc(Cl)c2)n1)N1CCS(=O)(=O)C1 [Example 65, {1-(2-Chloropyridin-4-yl)-5-[3-fluoro-5-(trifluoromethoxy)phenyl]-1H-pyrazol-3-yl}(1,1-dioxido-1,3-thiazolidin-3-yl)methanone] | 0.026 µM | 0.291 µM | 0.491 µM |
| O=C1CN(C(=O)c2cc(-c3cc(F)cc(OC(F)F)c3)n(-c3cccnc3)n2)CN1 [Example 66, 1-({5-[3-(Difluoromethoxy)-5-fluorophenyl]-1-(pyridin-3-yl)-1H-pyrazol-3-yl}carbonyl)imidazolidin-4-one] | 0.013 µM | 0.058 µM | 0.083 µM |
| O=C1CN(C(=O)c2cc(-c3cc(F)cc(OC(F)F)c3)n(-c3cccnc3)n2)CCN1 [Example 67] | 0.051 µM | 0.721 µM | 0.641 µM |
| O=C1CN(C(=O)c2cc(-c3cc(F)cc(OC(F)F)c3)n(-c3ccnc(Cl)c3)n2)CN1 [Example 68, 1-({1-(2-Chloropyridin-4-yl)-5-[3-(difluoromethoxy)-5-fluorophenyl]-1H-pyrazol-3-yl}carbonyl)imidazolidin-4-one] | 0.062 µM | 0.193 µM | 0.326 µM |
| O=C1CN(C(=O)c2cc(-c3cc(F)cc(OC(F)F)c3)n(-c3ccnc(Cl)c3)n2)CCN1 [Example 69, 4-({1-(2-Chloropyridin-4-yl)-5-[3-(difluoromethoxy)-5-fluorophenyl]-1H-pyrazol-3-yl}carbonyl)piperazin-2-one] | 0.32 µM | 1.14 µM | 1.98 µM |
| O=C1CN(C(=O)c2cc(-c3cc(F)cc(OCC(F)(F)F)c3)n(-c3cccnc3)n2)CN1 [Example 70, 1-({5-[3-Fluoro-5-(2,2,2-trifluoroethoxy)phenyl]-1-(pyridin-3-yl)-1H-pyrazol-3-yl}carbonyl)imidazolidin-4-one] | < 0.002 µM | 0.315 µM | 0.034 µM |
| O=C1CN(C(=O)c2cc(-c3cc(F)cc(OCC(F)(F)F)c3)n(-c3cccnc3)n2)CCN1 [Example 71, 4-({5-[3-Fluoro-5-(2,2,2-trifluoroethoxy)phenyl]-1-(pyridin-3-yl)-1H-pyrazol-3-yl}carbonyl)piperazin-2-one] | 0.013 µM | > 3.3 µM | 0.246 µM |
| O=C(c1cc(-c2cc(F)cc(OCC(F)(F)F)c2)n(-c2cccnc2)n1)N1CCSC1 [Example 72, {5-[3-Fluoro-5-(2,2,2-trifluoroethoxy)phenyl]-1-(pyridin-3-yl)-1H-pyrazol-3-yl}(1,3-thiazolidin-3-yl)methanone] | 0.038 µM | > 3.3 µM | 0.585 µM |
| O=C(c1cc(-c2cc(F)cc(OCC(F)(F)F)c2)n(-c2cccnc2)n1)N1CCS(=O)(=O)C1 [Example 74, (1,1-Dioxido-1,3-thiazolidin-3-yl) {5-[3-fluoro-5-(2,2,2-trifluoroethoxy)phenyl]-1-(pyridin-3-yl)-1H-pyrazol-3-yl}methanone] | 0.004 µM | 0.302 µM | 0.066 µM |
| O=C(c1cc(-c2cc(F)cc(OCC(F)(F)F)c2)n(-c2ccc[n+]([O-])c2)n1)N1CCS(=O)(=O)C1 [Example 75, (1,1-Dioxido-1,3-thiazolidin-3-yl) {5-[3-fluoro-5-(2,2,2-trifluoroethoxy)phenyl]-1-(1-oxidopyridin-3-yl)-1H-pyrazol-3-yl}methanone] | 0.272 µM | > 3.3 µM | > 3.3 µM |
| O=C1CN(C(=O)c2cc(-c3cc(Cl)cc(OC(F)(F)F)c3)n(-c3cccnc3)n2)CN1 [Example 76, 1-({5-[3-Chloro-5-(trifluoromethoxy)phenyl]-1-(pyridin-3-yl)-1H-pyrazol-3-yl}carbonyl)imidazolidin-4-one] | 0.014 µM | 0.019 µM | 0.207 µM |
| O=C(c1cc(-c2cc(Cl)cc(OC(F)(F)F)c2)n(-c2cccnc2)n1)N1CCSC1 [Example 77, {5-[3-Chloro-5-(trifluoromethoxy)phenyl]-1-(pyridin-3-yl)-1H-pyrazol-3-yl}(1,3-thiazolidin-3-yl)methanone] | 0.067 µM | 0.364 µM | 0.861 µM |
| O=C(c1cc(-c2cc(Cl)cc(OC(F)(F)F)c2)n(-c2cccnc2)n1)N1CCS(=O)(=O)C1 [Example 79, {5-[3-Chloro-5-(trifluoromethoxy)phenyl]-1-(pyridin-3-yl)-1H-pyrazol-3-yl}(1,1-dioxido-1,3-thiazolidin-3-yl)methanone] | 0.038 µM | 0.125 µM | 0.244 µM |
| O=C(c1cc(-c2cc(Cl)cc(OC(F)(F)F)c2)n(-c2ccc[n+](O)c2)n1)N1CCS(=O)(=O)C1 [Example 80, {5-[3-Chloro-5-(trifluoromethoxy)phenyl]-1-(1-oxidopyridin-3-yl)-1H-pyrazol-3-yl}(1,1-dioxido-1,3-thiazolidin-3-yl)methanone] | 0.164 µM | 0.075 µM | 2.79 µM |
| O=C1CN(C(=O)c2cc(-c3cc(Cl)cc(OC(F)F)c3)n(-c3cccnc3)n2)CN1 [Example 81, 1-({5-[3-Chloro-5-(difluoromethoxy)phenyl]-1-(pyridin-3-yl)-1H-pyrazol-3-yl}carbonyl)imidazolidin-4-one] | 0.003 µM | 0.008 µM | 0.015 µM |
| O=C(c1cc(-c2cc(Cl)cc(OC(F)F)c2)n(-c2cccnc2)n1)N1CCSC1 [Example 82, {5-[3-Chloro-5-(difluoromethoxy)phenyl]-1-(pyridin-3-yl)-1H-pyrazol-3-yl}(1,3-thiazolidin-3-yl)methanone] | 0.016 µM | 0.307 µM | 0.348 µM |
| COc1cc(OC(F)(F)F)cc(-c2cc(C(=O)N3CNC(=O)C3)nn2-c2cccnc2)c1 [Example 84, 1-({5-[3-Methoxy-5-(trifluoromethoxy)phenyl]-1-(pyridin-3-yl)-1H-pyrazol-3-yl}carbonyl)imidazolidin-4-one] | 0.01 µM | 0.008 µM | 0.048 µM |
| COc1cc(OC(F)(F)F)cc(-c2cc(C(=O)N3CCNC(=O)C3)nn2-c2cccnc2)c1 [Example 85, 4-({5-[3-Methoxy-5-(trifluoromethoxy)phenyl]-1-(pyridin-3-yl)-1H-pyrazol-3-yl}carbonyl)piperazin-2-one] | 0.05 µM | 0.123 µM | 0.302 µM |
| COc1cc(OC(F)(F)F)cc(-c2cc(C(=O)N3CNC(=O)C3)nn2-c2ccnc(Cl)c2)c1 [Example 86, 1-({1-(2-Chloropyridin-4-yl)-5-[3-methoxy-5-(trifluoromethoxy)phenyl]-1H-pyrazol-3-yl}carbonyl)imidazolidin-4-one] | 0.014 µM | 0.011 µM | 0.065 µM |
| COc1cc(OC(F)(F)F)cc(-c2cc(C(=O)N3CCNC(=O)C3)nn2-c2ccnc(Cl)c2)c1 [Example 87, 4-({1-(2-Chloropyridin-4-yl)-5-[3-methoxy-5-(trifluoromethoxy)phenyl]-1H-pyrazol-3-yl}carbonyl)piperazin-2-one] | 0.11 µM | 0.068 µM | 0.618 µM |
| N#Cc1cc(OC(F)(F)F)cc(-c2cc(C(=O)N3CNC(=O)C3)nn2-c2cccnc2)c1 [Example 88, 3-{3-[(4-Oxoimidazolidin-1-yl)carbonyl]-1-(pyridin-3-yl)-1H-pyrazol-5-yl}-5-(trifluoromethoxy)benzonitrile] | 0.015 µM | 0.026 µM | 0.186 µM |
| N#Cc1cc(OC(F)(F)F)cc(-c2cc(C(=O)N3CCNC(=O)C3)nn2-c2cccnc2)c1 [Example 89, 3-{3-[(3-Oxopiperazin-1-yl)carbonyl]-1-(pyridin-3-yl)-1H-pyrazol-5-yl}-5-(trifluoromethoxy)benzonitrile] | 0.258 µM | 0.523 µM | 0.129 µM |
| O=C1CN(C(=O)c2cc(-c3cc(F)cc(Br)c3)n(-c3cccnc3)n2)CN1 [Example 90, 1-{[5-(3-Bromo-5-fluorophenyl)-1-(pyridin-3-yl)-1H-pyrazol-3-yl]carbonyl}imidazolidin-4-one] | 0.003 µM | 0.033 µM | 0.011 µM |
| O=C1CN(C(=O)c2cc(-c3cc(F)cc(Br)c3)n(-c3cccnc3)n2)CCN1 [Example 91, 4-{[5-(3-Bromo-5-fluorophenyl)-1-(pyridin-3-yl)-1H-pyrazol-3-yl]carbonyl}piperazin-2-one] | 0.006 µM | 0.392 µM | 0.055 µM |
| O=C1CN(C(=O)c2cc(-c3cc(F)cc(Br)c3)n(-c3ccnc(Cl)c3)n2)CN1 [Example 92, 1-{[5-(3-Bromo-5-fluorophenyl)-1-(2-chloropyridin-4-yl)-1H-pyrazol-3-yl]carbonyl}imidazolidin-4-one] | 0.005 µM | 0.033 µM | 0.026 µM |
| O=C1CN(C(=O)c2cc(-c3cc(F)cc(Br)c3)n(-c3ccnc(Cl)c3)n2)CCN1 [Example 93, 4-{[5-(3-Bromo-5-fluorophenyl)-1-(2-chloropyridin-4-yl)-1H-pyrazol-3-yl]carbonyl}piperazin-2-one] | 0.016 µM | 0.256 µM | 0.137 µM |
| COc1cc(Br)cc(-c2cc(C(=O)N3CNC(=O)C3)nn2-c2cccnc2)c1 [Example 94, 1-{[5-(3-Bromo-5-methoxyphenyl)-1-(pyridin-3-yl)-1H-pyrazol-3-yl]carbonyl}imidazolidin-4-one] | < 0.002 µM | 0.012 µM | 0.006 µM |
| COc1cc(Br)cc(-c2cc(C(=O)N3CCNC(=O)C3)nn2-c2cccnc2)c1 [Example 95] | 0.005 µM | 0.054 µM | 0.033 µM |
